Common to all, as to type: cell-based
One experiment has as its system MKN45 cells. Briefly: MKN45 cell proliferation assay (CellTiter-Glo). As to conditions: Homo sapiens, MKN-45, 72 h; MKN45 cell line; 3 days incubation; at least duplicate experiments; read-out: Prolif. IC50. Background: In ATP-based viability assays light output follows the ATP content of the culture.
The next experiment has as its target T1, Aurora B (Homo sapiens, UniProt Q96GD4).
T1 construct: HT-29 cells grown in complete growth media
The experiment is described as follows: Aurora B cell mechanistic assay (HT-29), phospho-Histone H3 (Ser10) ELISA. As to conditions: HT-29 cell line; inhibition of phospho-Histone H3 (Ser10); at least duplicate experiments (italicized if single experiment); read-out: Aurora B mech IC50. The procedure:
The cellular activity of the compounds of the present invention against Aurora B may be determined by the following procedure. HT-29 cells grown in complete growth media (McCoy's 5A, 10% FCS, 1% L-glutamine) were plated into wells of a 96 well tissue culture plate (Falcon 3072) at a cell density of 4×10^4 cells/0.09 ml media/well. Cells were subsequently incubated overnight in a 5% CO2 humidified 37° C. incubator. The following day 10 μl of a 10× stock of test compound serially diluted in media was added to the cells and incubated for 1 h at 37° C. at which time Calyculin A (Cell Signaling #9902) was added at a concentration of 100 nM and cells incubated for an additional 30 minutes in a 5% CO2 humidified 37° C. incubator. Media was then aspirated and cells lysed using a Triton based lysis buffer. Lysates were transferred to a pre-coated anti-Histone H3 antibody coated plate supplied by Cell Signaling in their PathScan phospho-Histone H3 (Ser10) ELISA kit (#7155). After an overnight incubation with lysate the ELISA was continued following the manufacturer's instructions. Signal was measured on a Wallac Victor plate reader at 450 nm. DMSO control treated cells served as 100% signal and an Aurora B kinase inhibitor served as 100% inhibition. The percent inhibition of phospho-Histone H3 (Ser10) was expressed as % control. IC50 values were calculated from the percent control data using a standard four-parameter model.
The IC50 values of exemplary compounds of the present invention determined in a Aurora B cell mechanistic assay using the HT-29 cell line according to the procedures described herein in at least duplicate experiments are abbreviated as follows and are shown in Table 4: A, IC50≦0.05 μM; B, 0.05 μM<IC50≦0.2 μM; C, 0.2 μM<IC50≦1 μM; D, IC50>1 μM; ND, not determined. If only data from single experiments are available, the abbreviations are italicized. The Example # of Table 4 corresponds to the compound example number as illustrated in the Examples section.

For a further experiment, the system named is Karpas-299 cells. Briefly: Karpas-299 cell proliferation assay (CellTiter-Glo). The conditions noted are these: Homo sapiens, 72 h; Karpas-299 cell line (NPM-ALK); 3 days incubation; at least duplicate experiments; read-out: Prolif. IC50.
A further experiment has as its target T2, RON (Homo sapiens, UniProt Q04912).
T2 sequence (Q04912 913-1400): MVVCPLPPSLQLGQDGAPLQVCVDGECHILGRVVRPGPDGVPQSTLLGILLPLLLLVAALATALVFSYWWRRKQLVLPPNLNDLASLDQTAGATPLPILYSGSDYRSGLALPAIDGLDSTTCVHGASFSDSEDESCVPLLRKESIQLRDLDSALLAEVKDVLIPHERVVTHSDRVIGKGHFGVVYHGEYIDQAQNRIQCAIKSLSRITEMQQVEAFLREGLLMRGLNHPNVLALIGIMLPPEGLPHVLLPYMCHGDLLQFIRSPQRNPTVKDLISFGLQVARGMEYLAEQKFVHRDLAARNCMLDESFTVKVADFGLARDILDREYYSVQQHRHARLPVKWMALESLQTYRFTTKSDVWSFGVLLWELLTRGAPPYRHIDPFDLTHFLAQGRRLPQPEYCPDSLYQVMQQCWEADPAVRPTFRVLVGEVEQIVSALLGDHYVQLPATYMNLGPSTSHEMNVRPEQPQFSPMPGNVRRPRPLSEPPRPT
Briefly: sfRON cell mechanistic assay (HeLa), phosphorylated RON ELISA. The conditions noted are these: HeLa cells transfected with sfRON; inhibition of phosphorylated RON; four hours incubation; at least duplicate experiments; read-out: sfRON mech IC50. Put shortly:
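HeLa cells transiently transfected with sfRON plasmid, then exposed 4 h at 37 °C to a 6-point compound series (typically 10 μM to 3 nM, 0.5% DMSO). Phospho-RON (pY1238/1239) in lysates measured by sandwich ELISA with luminescence. IC50 from 4-parameter fit of percent-of-DMSO-control data, at least duplicate runs.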

The term IC50 denotes the concentration needed to halve the response being measured.

T1 sequence (Q96GD4 whole entry): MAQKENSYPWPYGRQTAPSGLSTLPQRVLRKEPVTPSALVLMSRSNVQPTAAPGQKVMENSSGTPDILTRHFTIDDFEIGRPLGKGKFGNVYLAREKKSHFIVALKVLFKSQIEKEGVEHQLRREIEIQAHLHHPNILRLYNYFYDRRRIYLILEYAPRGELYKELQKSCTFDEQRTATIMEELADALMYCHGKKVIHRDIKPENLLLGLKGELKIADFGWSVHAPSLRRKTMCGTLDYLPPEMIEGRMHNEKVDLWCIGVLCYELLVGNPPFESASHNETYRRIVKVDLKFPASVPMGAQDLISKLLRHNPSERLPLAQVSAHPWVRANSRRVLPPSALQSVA

Take `COc1ccc(F)c(Cl)c1[C@@H](C)c1c[nH]c2ncc(-c3cn(C[C@H](O)CO)nc3C)cc12` [Example 9, (2S)-3-(4-{3-[(1S)-1-(2-Chloro-3-fluoro-6-methoxyphenyl)ethyl]-1H-pyrrolo[2,3-b]pyridin-5-yl}-3-methyl-1H-pyrazol-1-yl)propane-1,2-diol]: the IC50 in the experiment on MKN45 cells was at most 50 nM; on Aurora B, 200 to 1000 nM; in the experiment with Karpas-299 cells it was at most 50 nM.

Turning to `COc1ccc(F)c(Cl)c1[C@@H](C)c1c[nH]c2ncc(-c3cn(C)nc3C(F)(F)F)cc12` [Example 29, 3-[(1S)-1-(2-Chloro-3-fluoro-6-methoxyphenyl)ethyl]-5-[1-methyl-3-(trifluoromethyl)-1H-pyrazol-4-yl]-1H-pyrrolo[2,3-b]pyridine], the 50% inhibitory concentration (IC50) in the experiment on MKN45 cells, on Aurora B and in the experiment with Karpas-299 cells was over 1000 nM each time.

On to `COc1ccc(F)c(Cl)c1[C@@H](C)c1c[nH]c2ncc(-c3cn(CC(C)(C)O)nc3C(F)(F)F)cc12` [Example 30, 1-[4-{3-[(1S)-1-(2-Chloro-3-fluoro-6-methoxyphenyl)ethyl]-1H-pyrrolo[2,3-b]pyridin-5-yl}-3-(trifluoromethyl)-1H-pyrazol-1-yl]-2-methylpropan-2-ol], for which the IC50 in the experiment with MKN45 cells was 200 to 1000 nM; on Aurora B it was over 1000 nM; in the experiment with Karpas-299 cells, 200 to 1000 nM.

For the compound `COc1ccc(F)c(Cl)c1[C@@H](C)c1c[nH]c2ncc(-c3cnn(C)c3Cl)cc12` [Example 59, 3-[(1S)-1-(2-Chloro-3-fluoro-6-methoxyphenyl)ethyl]-5-(5-chloro-1-methyl-1H-pyrazol-4-yl)-1H-pyrrolo[2,3-b]pyridine], the IC50 on RON was over 1000 nM; at Aurora B, over 1000 nM; in the experiment with Karpas-299 cells it was 200 to 1000 nM.

With `Cc1c(-c2cnc3[nH]cc([C@H](C)c4c(OC[C@@H](O)CO)ccc(F)c4Cl)c3c2)cnn1C` [Example 68, (2S)-3-(3-Chloro-2-{(1S)-1-[5-(1,5-dimethyl-1H-pyrazol-4-yl)-1H-pyrrolo[2,3-b]pyridin-3-yl]ethyl}-4-fluorophenoxy)propane-1,2-diol], the IC50 with MKN45 cells was over 1000 nM; on Aurora B, over 1000 nM; in the experiment with Karpas-299 cells it was 200 to 1000 nM.

Regarding `CCOc1ccc(F)c(Cl)c1[C@@H](C)c1c[nH]c2ncc(-c3c(C)nn(C[C@@H](O)CO)c3C)cc12` [Example 101, (2R)-3-(4-{3-[(1S)-1-(2-Chloro-6-ethoxy-3-fluorophenyl)ethyl]-1H-pyrrolo[2,3-b]pyridin-5-yl}-3,5-dimethyl-1H-pyrazol-1-yl)propane-1,2-diol], the results for the 50% inhibitory concentration (IC50) in the experiment on MKN45 cells, on Aurora B and with Karpas-299 cells were at most 50 nM, over 1000 nM and at most 50 nM, respectively.

For `Cc1c(-c2cnc3[nH]cc([C@H](C)c4c(OC[C@H](O)CO)ccc(F)c4Cl)c3c2)cnn1C` [Example 127, (2R)-3-(3-Chloro-2-{(1S)-1-[5-(1,5-dimethyl-1H-pyrazol-4-yl)-1H-pyrrolo[2,3-b]pyridin-3-yl]ethyl}-4-fluorophenoxy)propane-1,2-diol], the IC50 is over 1000 nM in the experiment with MKN45 cells, over 1000 nM at Aurora B and 200 to 1000 nM in the experiment on Karpas-299 cells.

(Values after patent publication US8445510B2, “Fused bicyclic kinase inhibitors” (OSI Pharmaceuticals, LLC, priority 2011, dated 2013).)
